# According to US9505730B2, “Mineralocorticoid receptor antagonists” (Merck Sharp & Dohme Corp., priority 2011, dated 2016):
# Molecular target: T1, full-length human Mineralocorticoid Receptor (MR) (Homo sapiens, UniProt P08235)
# T1 construct: host or cells: PathHunter CHO-K1 cells
# T1 sequence (P08235 1-984): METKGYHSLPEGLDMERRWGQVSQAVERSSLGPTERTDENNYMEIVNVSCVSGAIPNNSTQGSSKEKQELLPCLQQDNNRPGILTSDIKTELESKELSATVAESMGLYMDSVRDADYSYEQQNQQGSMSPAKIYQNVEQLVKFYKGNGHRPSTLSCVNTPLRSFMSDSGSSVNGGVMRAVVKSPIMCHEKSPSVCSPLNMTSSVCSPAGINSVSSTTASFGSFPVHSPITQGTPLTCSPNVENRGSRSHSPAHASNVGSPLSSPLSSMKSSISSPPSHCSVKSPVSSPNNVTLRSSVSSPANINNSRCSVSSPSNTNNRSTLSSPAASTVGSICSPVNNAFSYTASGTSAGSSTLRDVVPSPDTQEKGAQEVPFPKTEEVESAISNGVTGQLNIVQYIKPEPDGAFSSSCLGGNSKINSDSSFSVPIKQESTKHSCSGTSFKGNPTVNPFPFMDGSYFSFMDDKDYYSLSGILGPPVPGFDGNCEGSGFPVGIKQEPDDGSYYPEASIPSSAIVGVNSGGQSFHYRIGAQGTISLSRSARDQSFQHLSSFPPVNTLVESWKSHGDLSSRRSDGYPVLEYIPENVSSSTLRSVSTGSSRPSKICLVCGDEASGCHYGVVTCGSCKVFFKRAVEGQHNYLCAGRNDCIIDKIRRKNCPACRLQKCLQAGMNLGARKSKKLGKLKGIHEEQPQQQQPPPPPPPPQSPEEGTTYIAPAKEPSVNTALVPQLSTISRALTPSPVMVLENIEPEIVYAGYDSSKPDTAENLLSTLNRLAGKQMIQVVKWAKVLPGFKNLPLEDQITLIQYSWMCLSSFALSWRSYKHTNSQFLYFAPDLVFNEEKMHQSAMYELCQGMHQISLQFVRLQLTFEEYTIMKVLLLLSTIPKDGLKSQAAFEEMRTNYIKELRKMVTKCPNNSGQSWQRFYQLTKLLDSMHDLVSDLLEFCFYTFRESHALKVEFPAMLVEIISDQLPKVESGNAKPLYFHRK
# Test: human MR NH Pro assay (PathHunter Protein:Protein interaction assay, MR antagonism)
# Type: cell-based
# Conditions: PathHunter CHO-K1 cells overexpressing human MR; aldosterone 0.3 nM; 6 hours at 37° C.; luminescence; read-out: IC50 rating
# Method: The activity of the compounds of the present invention regarding mineralocorticoid receptor antagonism was evaluated using the following assay.
# Assessment of Mr Potency in Hmr Nh Pro Assay
# The human MR NH Pro assay is a commercially available PathHunter™ Protein: Protein interaction assay (DiscoveRx; http://www.discoverx.com/nhrs/prod-nhrs.php) that measures the ability of compounds to antagonize full-length human Mineralocorticoid Receptor (MR) binding to a coactivator peptide. PathHunter™ CHO-K1 cells that overexpress human MR (Cat #93-0456C2, Lot No: 09B0913) were cultured in growth media (F12K w/Glutamine and phenol red (Gibco 11765-047) supplemented with 10% HI FBS (Gibco 16000); 0.25 mg/ml Hygromycin in PBS (Invitrogen 10687-010, 50 mg/ml); 100 I.U./mL and 100 μg/mL Pen/Strep (Gibco 15140-122); 0.6 mg/mL Geneticin).
# Compounds were assessed for MR antagonist activity by incubating the cells with a titrating dose of compound in F12K w/Glutamine and phenol red culture media (Invitrogen 11765-047) supplemented with 1% Charcoal/Dextran Treated FBS (Hyclone #SH30068.01) and aldosterone (0.3 nM) for 6 hours at 37° C.
# • F12K w/Glutamine and phenol red (Gibco 11765-047) • 10% HI FBS (Gibco 16000) • 0.25 mg/ml Hygromycin in PBS (Invitrogen 10687-010, 50 mg/ml) • 100 I.U./mL and 100 μg/mL Pen/Strep (Gibco 15140-122) • 0.6 mg/mL Geneticin (Gibco 10131, 50 mg/ml) 2. Assay media: • F12K w/Glutamine and phenol red (Invitrogen 11765-047) • 1% Charcoal/Dextran Treated FBS (Hyclone #SH30068.01) 3. 3× PathHunter Detection Reagents (Cat#93-0001) (need ˜6 ml/plate). […] Control Agonist: Aldosterone: Sigma cat #A9477 • Prepare stock solution—10 μM in DMSO kept at −20 C • for assay, dilute in assay media to 1.8 or 6 nM (6× of final concentration=about 0.3 nM to about 1.0 nM) 5. Cell line: PathHunter CHO-K1 MR cells Cat #93-0456C2, Lot No: 09B0913, from operation liquid nitrogen stock. 6. Control Antagonist: Spironolactone: Sigma #S-3378 and Eplerenone Sigma #107724-20-9 (10 mM stock concentration also prepared in DMSO and stored at −20° C.). Methods: Assay Set up and Calculations: • 1. Cells were grown in F12+FBS+Hygromycin+pen/strep+Genetin. • 2. Cells were collected with 0.05% trypsin and the cell suspension was spun and resuspended in a volume of F12+1.5% CD-FBS and counted. • 3. The cells were resuspended to 4×10^5 cells/mL. • 4. Cells were (25 μL/well) added to the wells of a 384 well plate. • 5. The plate was then incubated at 37° C. over night in a humidified incubator with 5% CO2. • 6. Test compounds were titrated starting at 4.4 mM, 10-point titration in 1:3 dilution. • 7. Aldosterone was diluted in assay media to 1.8 nM or 6 nM from 10 μM stock (final concentration to be about 0.3 nM to about 1.0 nM). Protocol for 384 well plate format: 6 hr treatment: • 1. Plated 10K exponentially growing cells/well (25 μL) resuspended in assay media to each well using the Multidrop (Thermo Electron). Use white wall, clear bottom assay plates (Costar #3570) and incubate overnight at 37° C., 5% CO2. • 2. 0.25 μL 120× test compound (final DMSO concentration should be <1%) was added to each well n=2, 10 point titrations starting at 36.7 μM final concentration. • 3. 5 μL 6× agonist (final aldosterone concentration should be about 0.3 nM to about 1.0 nM) was added to all wells using the PlateMate Plus.
# (ThermoFisher) (except those wells in columns 23 and 24) • 4. 5 μL of assay media was added to all wells in column 23 and 24. • 5. Plates were incubated 6 hrs at 37° C., 5% CO2. • 6. 15 μL 3× DiscoveRx detection reagent was added to each well. • 7. Plates were incubated for 1 hour at room temperature (plates stored in the dark). • 8. Plates were read on Envision (PerkinElmer) luminesence plate reader and analyzed using ADA. LC/MS method: (LC2M_Low/Med_Positive mode). LC Conditions: 5-98% CH3CN/H2O+v 0.1% TFA over 1.25 min; Flow Rate=1.5 mL/min, UV wavelength 254 nm; Column: Waters XTerra® MS C18 3.5 μm 2.1×20 mm IS™
row,IC50 [nM],Structure (SMILES)
1,100 to 500,"COc1cc(CNC(=O)[C@@]2(Cc3ccccc3)OC(=O)N(C3CCCc4ccccc43)C2=O)cc(OC)c1 (stereo partly drawn) [Compound 7, (5R)-5-Benzyl-N-(3,5-dimethoxybenzyl)-2,4-dioxo-3-(1,2,3,4-tetrahydronaphthalen-1-yl)-1,3-oxazolidine-5-carboxamide]"
2,500 to 4500,"COc1cc(CNC(=O)C2(Cc3cccc(Cl)c3)OC(=O)N([C@H](C)c3ccccc3)C2=O)cc(OC)c1 (stereo partly drawn) [Compound 5, 5-(3-Chlorobenzyl)-N-(3,5-dimethoxybenzyl)-2,4-dioxo-3-[(1R)-1-phenylethyl]-1,3-oxazolidine-5-carboxamide]"
3,100 to 500,"COc1cc(CNC(=O)[C@@]2(Cc3ccccc3)OC(=O)N(C(C)C)C2=O)cc(OC)c1 [Compound 6, (5R)-5-Benzyl-N-(3,5-dimethoxybenzyl)-3-(1-methylethyl)-2,4-dioxo-1,3-oxazolidine-5-carboxamide]"
4,100 to 500,"C[C@H](c1ccc(F)cc1)N1C(=O)O[C@](Cc2ccccc2)(C(=O)NC(c2cccc(Cl)c2)C(F)(F)F)C1=O (stereo partly drawn) [Compound 18, (5R)-5-Benzyl-N-[1-(3-chlorophenyl)-2,2,2-trifluoroethyl]-3-[(1R)-1-(4-fluorophenyl)ethyl]-2,4-dioxo-1,3-oxazolidine-5-carboxamide]"
